These results are taken from patent publication US20260191968A1, “PROTAC DEGRADERS OF MLLT1 AND/OR MLLT3” (DARK BLUE THERAPEUTICS LTD, priority 2024, published 2026).

Test [1] concerns the target T1, MLLT1 (Homo sapiens, UniProt Q03111).
T1 construct: host or cells: MV4-11
T1 sequence (Q03111 1-559): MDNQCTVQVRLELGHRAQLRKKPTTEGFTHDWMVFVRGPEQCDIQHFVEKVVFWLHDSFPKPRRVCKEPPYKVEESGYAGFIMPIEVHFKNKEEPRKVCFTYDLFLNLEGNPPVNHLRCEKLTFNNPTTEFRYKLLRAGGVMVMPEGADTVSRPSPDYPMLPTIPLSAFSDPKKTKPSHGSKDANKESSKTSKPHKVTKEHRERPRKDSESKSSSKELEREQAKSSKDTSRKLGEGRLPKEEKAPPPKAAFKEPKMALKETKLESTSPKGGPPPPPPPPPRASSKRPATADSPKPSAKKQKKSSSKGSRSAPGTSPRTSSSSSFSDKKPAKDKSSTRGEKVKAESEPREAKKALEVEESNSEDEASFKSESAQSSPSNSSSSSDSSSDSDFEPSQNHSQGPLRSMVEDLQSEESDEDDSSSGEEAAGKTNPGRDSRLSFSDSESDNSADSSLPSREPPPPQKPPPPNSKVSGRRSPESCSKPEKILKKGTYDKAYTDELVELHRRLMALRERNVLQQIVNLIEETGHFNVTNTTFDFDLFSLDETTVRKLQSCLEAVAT
Kind of test: MLLT1 degradation assay in MV4-11 cells (JESS chemiluminescent detection), three concentrations, 24 h. In kind it is cell-based. The note with it: with respect to DMSO control. The method in brief:
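Read-out is % MLLT1 degradation versus DMSO, from band peak areas on a JESS chemiluminescent system. Cells (MV4-11) were exposed for 24 h at 37° C to three compound levels, 10, 100 and 1000 nM, in 0.1% DMSO.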

For test [2], the system named is MV4-11 cells. Briefly: MV4-11 cellular proliferative assay, Assay Format B (CTG 2.0, 168 h). It counts as cell-based. The note with it: Homo sapiens, 168 h (7 days), CTG 2.0, read-out: IC50 (MV4-11 cellular proliferative assay, Assay format B). The method in brief: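 Viability read by CellTiter-Glo 2.0 luminescence after 7-day (168 h) compound exposure of MV4-11 cells in IMDM/10% FBS. Ten 3-fold concentrations starting at 1 uM or 100 nM, 0.3% final DMSO; curves normalised to DMSO control, four-parameter fit.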

As usually defined, the IC50 is the concentration that gives 50% inhibition. Consider `CN1CCC[C@@H]1c1cc2cnc(NC(=O)c3ccc(OC4CCN(CC5CCN(c6cccc7c6CN(C6CCC(=O)NC6=O)C7=O)CC5)CC4)nc3)cc2[nH]1` (stereo partly drawn) [Example 125, 6-((1-((1-(2-(2,6-dioxopiperidin-3-yl)-1-oxoisoindolin-4-yl)piperidin-4-yl)methyl)piperidin-4-yl)oxy)-N-(2-((R)-1-methylpyrrolidin-2-yl)-1H-pyrrolo[3,2-c]pyridin-6-yl)nicotinamide], for which, in test [1], the “MLLT1% Degradation @ 0.01 μM” value is “A (Category A: A ≥ 75% degradation)”, the “MLLT1% Degradation @ 0.1 μM” value was “A (Category A: A ≥ 75% degradation)” and the “MLLT1% Degradation @ 1 μM” value is “A (Category A: A ≥ 75% degradation)”. Also, the IC50 in test [2] was at most 100 nM.

Regarding `CN1CCC[C@@H]1c1cc2cnc(NC(=O)c3ccc(N4CCC(OC5CCN(c6cccc7c6CN(C6CCC(=O)NC6=O)C7=O)CC5)CC4)cc3)cc2[nH]1` (stereo partly drawn) [Example 137, 4-(4-((1-(2-(2,6-dioxopiperidin-3-yl)-1-oxoisoindolin-4-yl)piperidin-4-yl)oxy)piperidin-1-yl)-N-(2-((R)-1-methylpyrrolidin-2-yl)-1H-pyrrolo[3,2-c]pyridin-6-yl)benzamide], in test [1], the “MLLT1% Degradation @ 0.01 μM” value was “A (Category A: A ≥ 75% degradation)”, the “MLLT1% Degradation @ 0.1 μM” value was “A (Category A: A ≥ 75% degradation)” and the “MLLT1% Degradation @ 1 μM” value is reported as “A (Category A: A ≥ 75% degradation)”. In addition, in test [2], the IC50 is at most 100 nM.

`CN1CCC[C@@H]1c1cc2cnc(NC(=O)c3cnc(N4CCC(C#Cc5cccc6c5CN(C5CCC(=O)NC5=O)C6=O)CC4)nc3)cc2[nH]1` (stereo partly drawn) [Example 65, 2-(4-((2-(2,6-dioxopiperidin-3-yl)-1-oxoisoindolin-4-yl)ethynyl)piperidin-1-yl)-N-(2-((R)-1-methylpyrrolidin-2-yl)-1H-pyrrolo[3,2-c]pyridin-6-yl)pyrimidine-5-carboxamide]: in test [1], the “MLLT1% Degradation @ 0.01 μM” value is recorded as “B (Category B: 50% ≤ B < 75% degradation)”, the “MLLT1% Degradation @ 0.1 μM” value is recorded as “B (Category B: 50% ≤ B < 75% degradation)” and the “MLLT1% Degradation @ 1 μM” value was “B (Category B: 50% ≤ B < 75% degradation)”. Moreover, the IC50 in test [2] was at most 100 nM.

With `CN1CCC[C@@H]1c1cc2cnc(NC(=O)c3ccc(N4CCN(CC#Cc5cccc6c5CN(C5CCC(=O)NC5=O)C6=O)CC4)nc3)cc2[nH]1` (stereo partly drawn) [Example 6, 6-(4-(3-(2-(2,6-dioxopiperidin-3-yl)-1-oxoisoindolin-4-yl)prop-2-yn-1-yl)piperazin-1-yl)-N-(2-((R)-1-methylpyrrolidin-2-yl)-1H-pyrrolo[3,2-c]pyridin-6-yl)nicotinamide], in test [1], the “MLLT1% Degradation @ 0.01 μM” value was “A (Category A: A ≥ 75% degradation)”, the “MLLT1% Degradation @ 0.1 μM” value is “A (Category A: A ≥ 75% degradation)” and the “MLLT1% Degradation @ 1 μM” value was “B (Category B: 50% ≤ B < 75% degradation)”. The IC50 in test [2] was at most 100 nM.

On to `CN1CCC[C@@H]1c1cc2cnc(NC(=O)c3ccc(-c4cnn(CCCCC#Cc5cccc6c5CN(C5CCC(=O)NC5=O)C6=O)c4)cc3)cc2[nH]1` (stereo partly drawn) [Example 59, 4-(1-(6-(2-(2,6-dioxopiperidin-3-yl)-1-oxoisoindolin-4-yl)hex-5-yn-1-yl)-1H-pyrazol-4-yl)-N-(2-((R)-1-methylpyrrolidin-2-yl)-1H-pyrrolo[3,2-c]pyridin-6-yl)benzamide], for which, in test [1], the “MLLT1% Degradation @ 0.01 μM” value is recorded as “A (Category A: A ≥ 75% degradation)”, the “MLLT1% Degradation @ 0.1 μM” value was “A (Category A: A ≥ 75% degradation)” and the “MLLT1% Degradation @ 1 μM” value is “B (Category B: 50% ≤ B < 75% degradation)”. Besides, in test [2], the IC50 is at most 100 nM.

As to `CN1CCC[C@@H]1c1cc2cnc(NC(=O)c3ccc(N4CCC(OC=C=Cc5cccc6c5CN(C5CCC(=O)NC5=O)C6=O)CC4)nc3)cc2[nH]1` (stereo partly drawn) [Example 195, 6-(4-((3-(2-(2,6-dioxopiperidin-3-yl)-1-oxoisoindolin-4-yl)propa-1,2-dien-1-yl)oxy)piperidin-1-yl)-N-(2-((R)-1-methylpyrrolidin-2-yl)-1H-pyrrolo[3,2-c]pyridin-6-yl)nicotinamide], in test [1], the “MLLT1% Degradation @ 0.01 μM” value is “A (Category A: A ≥ 75% degradation)”, the “MLLT1% Degradation @ 0.1 μM” value is “B (Category B: 50% ≤ B < 75% degradation)” and the “MLLT1% Degradation @ 1 μM” value is reported as “A (Category A: A ≥ 75% degradation)”. Further, the IC50 in test [2] is at most 100 nM.

As for `CN1CCC[C@@H]1c1[nH]c2cc(NC(=O)c3ccc(OCCC4CCN(c5cccc6c5CN(C5CCC(=O)NC5=O)C6=O)CC4)cc3F)ncc2c1Cl` (stereo partly drawn) [Example 190, N-(3-chloro-2-((R)-1-methylpyrrolidin-2-yl)-1H-pyrrolo[3,2-c]pyridin-6-yl)-4-(2-(1-(2-(2,6-dioxopiperidin-3-yl)-1-oxoisoindolin-4-yl)piperidin-4-yl)ethoxy)-2-fluorobenzamide], in test [1], the “MLLT1% Degradation @ 0.01 μM” value is “B (Category B: 50% ≤ B < 75% degradation)”, the “MLLT1% Degradation @ 0.1 μM” value was “A (Category A: A ≥ 75% degradation)” and the “MLLT1% Degradation @ 1 μM” value is “A (Category A: A ≥ 75% degradation)”. For the same compound, the IC50 in test [2] was at most 100 nM.

Consider `CN1CCC[C@@H]1c1cc2cnc(NC(=O)c3ccc(N4CCN(C(=O)CC5CCN(c6cccc7c6CN(C6CCC(=O)NC6=O)C7=O)CC5)CC4)cc3)cc2[nH]1` (stereo partly drawn) [Example 88, 4-(4-(2-(1-(2-(2,6-dioxopiperidin-3-yl)-1-oxoisoindolin-4-yl)piperidin-4-yl)acetyl)piperazin-1-yl)-N-(2-((R)-1-methylpyrrolidin-2-yl)-1H-pyrrolo[3,2-c]pyridin-6-yl)benzamide], for which, in test [1], the “MLLT1% Degradation @ 0.01 μM” value was “B (Category B: 50% ≤ B < 75% degradation)”, the “MLLT1% Degradation @ 0.1 μM” value is recorded as “A (Category A: A ≥ 75% degradation)” and the “MLLT1% Degradation @ 1 μM” value is recorded as “B (Category B: 50% ≤ B < 75% degradation)”. The IC50 in test [2] was at most 100 nM.

Consider `CN1CCC[C@@H]1c1cc2cnc(NC(=O)c3ccc(N4CCC(C5CCN(c6cccc7c6CN(C6CCC(=O)NC6=O)C7=O)CC5)CC4)nc3)cc2[nH]1` (stereo partly drawn) [Example 75, 6-(1′-(2-(2,6-dioxopiperidin-3-yl)-1-oxoisoindolin-4-yl)-[4,4′-bipiperidin]-1-yl)-N-(2-((R)-1-methylpyrrolidin-2-yl)-1H-pyrrolo[3,2-c]pyridin-6-yl)nicotinamide], for which, in test [1], the “MLLT1% Degradation @ 0.01 μM” value is “A (Category A: A ≥ 75% degradation)”, the “MLLT1% Degradation @ 0.1 μM” value is recorded as “A (Category A: A ≥ 75% degradation)” and the “MLLT1% Degradation @ 1 μM” value was “A (Category A: A ≥ 75% degradation)”. The IC50 in test [2] was at most 100 nM.

`CN1CCC[C@@H]1c1cc2cnc(NC(=O)c3ccc(C4CCN(CC5CCN(c6cccc7c6CN(C6CCC(=O)NC6=O)C7=O)CC5)CC4)cc3)cc2[nH]1` (stereo partly drawn) [Example 167, 4-(1-((1-(2-(2,6-dioxopiperidin-3-yl)-1-oxoisoindolin-4-yl)piperidin-4-yl)methyl)piperidin-4-yl)-N-(2-((R)-1-methylpyrrolidin-2-yl)-1H-pyrrolo[3,2-c]pyridin-6-yl)benzamide]: in test [1], the “MLLT1% Degradation @ 0.01 μM” value was “A (Category A: A ≥ 75% degradation)”, the “MLLT1% Degradation @ 0.1 μM” value is on record as “A (Category A: A ≥ 75% degradation)” and the “MLLT1% Degradation @ 1 μM” value is listed as “A (Category A: A ≥ 75% degradation)”. In addition, in test [2], the IC50 is at most 100 nM.
